The text below walks through data of patent publication US10689369B2, “Substituted indazole compounds as RORgammaT inhibitors and uses thereof” (Merck Sharp & Dohme Corp., priority 2015, dated 2020).

Assay [1] has as its system murine collagen-induced arthritis model. The assay is described as follows: Murine collagen-induced arthritis model. It is filed as in vivo, DBA/1J mice. The note with it: oral 3, 10 or 30 mg/kg twice daily; FIG. 4. The protocol:
Female DBA/1J mice (Jackson Laboratories, 7-8 weeks old) were received and allowed to acclimate for about one week. On the day of immunization, an emulsion was freshly prepared by homogenizing equal volumes of Complete Freund's Adjuvant (CFA, Chondrex #7001) and a collagen type-2 solution (bovine source, Chondrex #20022) using a tissue homogenizer, on ice. A volume of 0.1 mL of this emulsion was injected subcutaneously into the base of the tail of each mouse, which was lightly anesthetized with isoflurane. Mice recovered from anesthesia were allowed food and water ad libitum.
Eighteen days after immunization, the mice were injected intraperitoneally with 40 μg of lipopolysaccaride (LPS, Sigma # L4005) in 0.2 mL saline, in order to help synchronize the disease progression in all animals. Seven days after LPS injection, the mice were assessed for knee joint swelling by measurement of each knee joint using digital calipers and computing total joint circumference. The total knee joint circumference of the 4 knee joints was then used to randomize mice into treatment groups of equal average circumference.
This dosing continued twice daily at 8- and 16-hour intervals for the duration of the study. As a positive control, one group of mice received 25 mg/kg Jak inhibitor (JAKi) tofacitinib once per day. Joints were measured 2-3 times per week.

Another assay addresses PPARγ (Homo sapiens (Human), UniProt P37231). The assay is described as follows: Nuclear hormone receptor selectivity assay (GAL4-NHR-LBD luciferase reporter, HEK293). The class given is cell-based. The protocol:
In the assay system used, an activated GAL4-nuclear hormone receptor (NHR) fusion construct binds to an upstream activation sequence (UAS) and drives a luciferase reporter gene. […]
HEK293 cells were transfected with GAL4-NHR-LBD construct (pcDNA3.1neo) and the pGL4.31 GAL4-luciferase reporter construct (Promega) and incubated overnight at 37° C. and 5% CO2. After 16-24 hours, cells were harvested and plated at 20 μL (10,000 cells)/well in tissue-culture treated 384 well plate. […] Next, plates are spun briefly and incubated overnight at 37° C. and 5% CO2. […] In agonist mode, test compound was incubated directly with the cells. For receptors that are not constitutively active, a known agonist is also tested as a positive control.
After 16-24 hours, luciferase activity was measured. Plates and luciferase reagent (e.g. One-Glo® or Dual Glo®; Promega, Madison, Wis.) were brought to room temperature. Next, a 25 μL aliquot of luciferase reagent was added to each well. Plates were spun down briefly and incubated at room temperature for 10 minutes. The luciferase signal was measured on an Envision plate reader (Perkin Elmer) set to the ultra-sensitive luminescence setting.
Background: In a reporter assay the amount or activity of a reporter protein is the signal.

Sequence of PPARγ (P37231 238-503, species assumed): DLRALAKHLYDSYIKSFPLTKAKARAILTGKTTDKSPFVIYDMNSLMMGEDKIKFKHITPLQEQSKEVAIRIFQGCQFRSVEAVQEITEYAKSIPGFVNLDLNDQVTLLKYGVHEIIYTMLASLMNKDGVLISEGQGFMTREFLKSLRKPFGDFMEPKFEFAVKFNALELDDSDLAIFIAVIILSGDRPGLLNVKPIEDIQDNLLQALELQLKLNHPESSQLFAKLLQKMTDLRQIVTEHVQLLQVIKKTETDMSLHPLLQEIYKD

With `O=C(O)[C@@H]1CC=C(c2nn(C(=O)c3c(Cl)cccc3C3(C(F)(F)F)CC3)c3c2CC[C@@H](C(=O)N2CCC4(COC4)C2)C3)CC1` [Test Compound], the total joint circumference entry in assay [1] is “dose-dependent decrease in total joint circumference”. For the same compound, on PPARγ, the “Agonist Mode, kind of agonism” value is “(partial agonist)”.
